Patent publication US4985412A, “Phosphoric acid ester, process for preparing the same, and detergent composition containing the same” (Kao Corporation, priority 1987, dated 1991)

Key:
Krafft point = format: physicochemical
[1] = Foaming capability (Reverse Stirring Method); format: physicochemical; settings: for Foaming capability (Foam volume): reverse stirring, 40 °C, 1,000 rpm, 30 sec (reversed at every 5 sec), measured after 10 sec
Method: * The conditions of the reverse stirring
Rotation speed: 1,000 rpm
Stirring time: 30 sec. (reversed at every 5 sec.)
Measurement: performed after the test sample was left for 10 sec.

[2] = comparison with sodium dodecyl phosphate, in words

Compound	Krafft point (Krafft point)	Foaming capability (Foam volume) [1]	Krafft point compared with sodium dodecyl phosphate (Krafft point; [2])	Foaming capability compared with sodium dodecyl phosphate [1, 2]
CCCCCCCCCCCCOP(=O)(O)O [1-sodium dodecyl phosphate]	32 °C	260 mL		
CCCCCCCCCCCCOP(=O)(O)OCC(O)CN(C)CC(=O)O (centres unmarked) [Example 1, sodium dodecyl 2-hydroxy-3-N-carboxymethyl-N-methylammoniopropyl phosphate]	< 0 °C	250 mL	extremely lower Krafft point	almost the same foaming capability
CCCCCCCCCCCCOP(=O)([O-])OCC(O)CO.[Na+] (centres unmarked) [sodium dodecyl 2,3-dihydroxypropyl phosphate]	< 0 °C	240 mL		
